Measured values: US8653100B2 (AbbVie Inc., priority 2008, dated 2014)
Where a name gives a salt, the structure may show the parent alone. Read-outs that look alike come from different tables or passages of the source.

What was measured:
human GlyT1c = human GlyT1c (Homo sapiens (Human), UniProt P48067); assay: [3H]-Glycine uptake into recombinant CHO cells expressing human GlyT1; format: cell-based; settings: hGlyT1c_5_CHO cells, 200 nM [3H]-glycine
Summary of the method: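 hGlyT1c-expressing CHO cells plated at 20,000 cells/well and cultured 24 h; [3H]-glycine incorporation read continuously by solid-phase scintillation for up to 3 h. IC50 from four-parameter logistic fit using the linear uptake phase between 60 and 120 min.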

human GlyT1c transporter = human GlyT1c transporter (Homo sapiens (Human), UniProt P48067); assay: Radioligand binding assay using recombinant CHO cell membranes expressing human GlyT1; settings: read-out: radioligand binding Kiapp
Sequence of human GlyT1c transporter (P48067 whole entry): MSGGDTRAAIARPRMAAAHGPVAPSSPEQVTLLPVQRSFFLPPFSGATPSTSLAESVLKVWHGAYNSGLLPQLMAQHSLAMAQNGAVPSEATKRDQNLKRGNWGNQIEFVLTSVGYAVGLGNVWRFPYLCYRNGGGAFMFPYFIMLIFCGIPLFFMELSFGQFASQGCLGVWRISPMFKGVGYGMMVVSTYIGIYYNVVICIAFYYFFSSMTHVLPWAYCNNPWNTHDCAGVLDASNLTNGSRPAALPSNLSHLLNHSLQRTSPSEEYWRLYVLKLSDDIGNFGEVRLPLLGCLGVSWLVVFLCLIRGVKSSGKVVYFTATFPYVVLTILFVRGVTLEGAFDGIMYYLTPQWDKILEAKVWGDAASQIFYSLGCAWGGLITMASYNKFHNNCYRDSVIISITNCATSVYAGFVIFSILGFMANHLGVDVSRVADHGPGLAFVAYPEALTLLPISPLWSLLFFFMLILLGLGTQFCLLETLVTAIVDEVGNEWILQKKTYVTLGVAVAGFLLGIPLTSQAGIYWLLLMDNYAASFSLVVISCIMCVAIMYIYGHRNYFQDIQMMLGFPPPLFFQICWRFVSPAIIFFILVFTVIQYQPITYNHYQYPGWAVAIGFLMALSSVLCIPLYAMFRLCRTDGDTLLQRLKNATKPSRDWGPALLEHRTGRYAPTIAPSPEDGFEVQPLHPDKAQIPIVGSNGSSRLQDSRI
Summary of the method: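 Competition binding of [^3H]-(R)-NPTS (0.5 nM) to CHO membranes expressing human GlyT1c (50 μg/ml protein) in pH 7.5 Hepes/NaCl buffer with 1% DMSO, 1 h at room temperature. Non-specific binding defined with 10 μM Org24598; filtration and scintillation counting, one-site fit, Ki via Cheng-Prusoff.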

[1] = examples 88-204, radioligand not specified by footnote
[2] = radioligand [3H]-(R)-NPTS (examples 1-19, 22-52, 54-87)

Sequence of human GlyT1c (P48067 whole entry): as above

SMILES	IC50 (human GlyT1c) [µM]	Ki (human GlyT1c transporter; [1]) [µM]	Ki (human GlyT1c transporter; [2]) [µM]
COc1cccc(S(=O)(=O)NCCOc2ccc3c(c2)C(C2(c4ccc(Cl)cc4)CCC2)NCC3)c1 (stereo not shown) [Example 19, N-(2-{1-[1-(4-Chloro-phenyl)-cyclobutyl]-1,2,3,4-tetrahydro-isoquinolin-7-yloxy}-ethyl)-3-methoxy-benzenesulfonamide hydrochloride]	≤ 10	–	≤ 10
O=S(=O)(NCCOc1ccc2c(c1)C(C1(c3ccc(Cl)cc3)CCC1)NCC2)c1ccc(Cl)cc1 (stereo not shown) [Example 27, 4-Chloro-N-(2-{1-[1-(4-chloro-phenyl)-cyclobutyl]-1,2,3,4-tetrahydro-isoquinolin-7-yloxy}-ethyl)-benzenesulfonamide hydrochloride]	≤ 1	–	≤ 1
CS(=O)(=O)NCCOc1cc2c(cc1F)CCNC2C1(c2ccc(Cl)cc2)CCC1 (stereo not shown) [Example 12, N-(2-{1-[1-(4-Chloro-phenyl)-cyclobutyl]-6-fluoro-1,2,3,4-tetrahydro-isoquinolin-7-yloxy}-ethyl)-methanesulfonamide hydrochloride]	≤ 0.1	–	≤ 1
CC(C)(O)CS(=O)(=O)NCCOc1ccc2c(c1)C(C1(c3ccc(Cl)cc3)CCC1)NCC2 (stereo not shown) [Example 103, N-[2-({1-[1-(4-Chlorophenyl)cyclobutyl]-1,2,3,4-tetrahydroisoquinolin-7-yl}oxy)ethyl]-2-hydroxy-2-methylpropane-1-sulfonamide hydrochloride]	≤ 0.1	≤ 0.1	–
CC(C)CS(=O)(=O)NCCOc1ccc2c(c1)C(C1(c3ccc(Cl)cc3)CCC1)NCC2 (stereo not shown) [Example 8, 2-Methyl-propane-1-sulfonic acid (2-{1-[1-(4-chloro-phenyl)-cyclobutyl]-1,2,3,4-tetrahydro-isoquinolin-7-yloxy}-ethyl)-amide hydrochloride]	≤ 0.1	–	≤ 0.1
O=S(=O)(NCCOc1ccc2c(c1)C(C1(c3ccc(Cl)cc3)CCC1)NCC2)c1ccccc1Cl (stereo not shown) [Example 25, 2-Chloro-N-(2-{1-[1-(4-chloro-phenyl)-cyclobutyl]-1,2,3,4-tetrahydro-isoquinolin-7-yloxy}-ethyl)-benzenesulfonamide hydrochloride]	≤ 1	–	≤ 1
CCCCS(=O)(=O)NCCOc1ccc2c(c1)C(C1(c3ccc(Cl)cc3)CCC1)NCC2 (stereo not shown) [Example 16, Butane-1-sulfonic acid (2-{1-[1-(4-chloro-phenyl)-cyclobutyl]-1,2,3,4-tetrahydro-isoquinolin-7-yloxy}-ethyl)-amide hydrochloride]	≤ 0.1	–	≤ 0.1
O=S(=O)(NCCOc1ccc2c(c1)C(C1(c3ccc(Cl)cc3)CCC1)NCC2)c1ccc(-c2ccon2)s1 (stereo not shown) [Example 22, 5-Isoxazol-3-yl-thiophene-2-sulfonic acid (2-{1-[1-(4-chloro-phenyl)-cyclobutyl]-1,2,3,4-tetrahydro-isoquinolin-7-yloxy}-ethyl)-amide hydrochloride]	≤ 10	–	≤ 100
O=S(=O)(NCCOc1ccc2c(c1)C(C1(c3ccc(Cl)cc3)CCC1)NCC2)C1CC1 (stereo not shown) [Example 28, Cyclopropanesulfonic acid (2-{1-[1-(4-chloro-phenyl)-cyclobutyl]-1,2,3,4-tetrahydro-isoquinolin-7-yloxy}-ethyl)-amide hydrochloride]	≤ 0.1	–	≤ 0.1
O=S(=O)(NCCOc1cc2c(cc1F)CCNC2C1(c2ccc(Cl)cc2)CCC1)c1cccnc1 (stereo not shown) [Example 14, Pyridine-3-sulfonic acid (2-{1-[1-(4-chloro-phenyl)-cyclobutyl]-6-fluoro-1,2,3,4-tetrahydro-isoquinolin-7-yloxy}-ethyl)-amide hydrochloride]	≤ 0.1	–	≤ 0.1
O=S(=O)(NCCOc1ccc2c(c1)C(C1(c3cccc(F)c3)CCC1)NCC2)c1cccnc1 (stereo not shown) [Example 101, N-[2-({1-[1-(3-fluorophenyl)cyclobutyl]-1,2,3,4-tetrahydroisoquinolin-7-yl}oxy)ethyl]pyridine-3-sulfonamide dihydrochloride]	≤ 1	≤ 0.1	–
O=S(=O)(NCCOc1ccc2c(c1)C(C1(c3ccc(Cl)cc3)CCC1)NCC2)c1ccccc1 (stereo not shown) [Example 62, N-(2-{1-[1-(4-Chloro-phenyl)-cyclobutyl]-1,2,3,4-tetrahydro-isoquinolin-7-yloxy}-ethyl)-benzenesulfonamide hydrochloride]	≤ 1	–	≤ 1
CCCS(=O)(=O)NCCOc1ccc2c(c1)C(C1(c3ccc(F)cc3)CCC1)NCC2 (stereo not shown) [Example 65, N-[2-({1-[1-(4-Fluorophenyl)cyclobutyl]-1,2,3,4-tetrahydroisoquinolin-7-yl}oxy)ethyl]propane-1-sulfonamide hydrochloride]	≤ 0.1	–	≤ 0.1
N#Cc1ccccc1S(=O)(=O)NCCOc1ccc2c(c1)C(C1(c3ccc(Cl)cc3)CCC1)NCC2 (stereo not shown) [Example 23, N-(2-{1-[1-(4-Chloro-phenyl)-cyclobutyl]-1,2,3,4-tetrahydro-isoquinolin-7-yloxy}-ethyl)-2-cyano-benzenesulfonamide hydrochloride]	≤ 10	–	≤ 10

Results, then the molecule that gave them:

IC50 (human GlyT1c) [µM]	Ki (human GlyT1c transporter; [1]) [µM]	Ki (human GlyT1c transporter; [2]) [µM]	SMILES
≤ 10	≤ 10	–	CC(C)(C)OC(=O)NCCNS(=O)(=O)CCCOc1ccc2c(c1)C(C1(c3ccc(Cl)cc3)CCC1)NCC2 (stereo not shown) [Example 126, tert-Butyl [2-({[3-({1-[1-(4-chlorophenyl)cyclobutyl]-1,2,3,4-tetrahydroisoquinolin-7-yl}oxy)propyl]sulfonyl}amino)ethyl]carbamate]
≤ 100	≤ 10	–	NCCNS(=O)(=O)CCCOc1ccc2c(c1)C(C1(c3ccc(Cl)cc3)CCC1)NCC2 (stereo not shown) [Example 130, N-(2-Aminoethyl)-3-({1-[1-(4-chlorophenyl)cyclobutyl]-1,2,3,4-tetrahydroisoquinolin-7-yl}oxy)propane-1-sulfonamide dihydrochloride]
≤ 10	≤ 1	–	O=S(=O)(NCCOc1ccc2c(c1)C(C1(c3ccc(Cl)cc3)CCC1)NCC2)c1c(Cl)nc2sccn12 (stereo not shown) [Example 167, 6-Chloro-N-[2-({1-[1-(4-Chlorophenyl)cyclobutyl]-1,2,3,4-tetrahydroisoquinolin-7-yl}oxy)ethyl]imidazo[2,1-b][1,3]thiazole-5-sulfonamide hydrochloride]
≤ 10	≤ 10	–	CCCS(=O)(=O)NCCOc1ccc2c(c1)C(C(O)(c1ccc(Cl)cc1)c1ccc(Cl)cc1)NCC2 (stereo not shown) [Example 176, N-[2-({1-[Bis(4-chlorophenyl)(hydroxy)methyl]-1,2,3,4-tetrahydroisoquinolin-7-yl}oxy)ethyl]propane-1-sulfonamide hydrochloride]
≤ 10	≤ 0.1	–	CC(C)(C)CS(=O)(=O)NCCOc1ccc2c(c1)C(C1(c3ccc(Cl)cc3)CCC1)NCC2 (stereo not shown) [Example 155, N-[2-({1-[1-(4-Chlorophenyl)cyclobutyl]-1,2,3,4-tetrahydroisoquinolin-7-yl}oxy)ethyl]-2,2-dimethylpropane-1-sulfonamide hydrochloride]
≤ 0.1	≤ 0.1	–	CCCS(=O)(=O)NCCOc1ccc2c(c1)C(C1(c3ccc(Cl)c(N)c3)CCC1)NCC2 (stereo not shown) [Example 142, N-[2-({1-[1-(3-Amino-4-chlorophenyl)cyclobutyl]-1,2,3,4-tetrahydroisoquinolin-7-yl}oxy)ethyl]propane-1-sulfonamide dihydrochloride]
≤ 10	≤ 1	–	O=S(=O)(NCCOc1ccc2c(c1)C(C1(c3cccc(F)c3)CCC1)NCC2)c1cccs1 (stereo not shown) [Example 106, N-[2-({1-[1-(3-Fluorophenyl)cyclobutyl]-1,2,3,4-tetrahydroisoquinolin-7-yl}oxy)ethyl]thiophene-2-sulfonamide hydrochloride]
≤ 100	≤ 10	–	CC(C)NCCCS(=O)(=O)NCCOc1ccc2c(c1)C(C1(c3ccc(Cl)cc3)CCC1)NCC2 (stereo not shown) [Example 197, N-[2-({1-[1-(4-Chlorophenyl)cyclobutyl]-1,2,3,4-tetrahydroisoquinolin-7-yl}oxy)ethyl]-3-(propan-2-ylamino)propane-1-sulfonamide (2E)-but-2-enedioate]
≤ 10	≤ 100	–	O=S(=O)(CCCN1CCCCC1)NCCOc1ccc2c(c1)C(C1(c3ccc(Cl)cc3)CCC1)NCC2 (stereo not shown) [Example 200, N-[2-({1-[1-(4-Chlorophenyl)cyclobutyl]-1,2,3,4-tetrahydroisoquinolin-7-yl}oxy)ethyl]-3-(piperidin-1-yl)propane-1-sulfonamide (2E)-but-2-enedioate]
≤ 10	≤ 10	–	CCNCCCS(=O)(=O)NCCOc1ccc2c(c1)C(C1(c3ccc(Cl)cc3)CCC1)NCC2 (stereo not shown) [Example 187, N-[2-({1-[1-(4-Chlorophenyl)cyclobutyl]-1,2,3,4-tetrahydroisoquinolin-7-yl}oxy)ethyl]-3-(ethylamino)propane-1-sulfonamide]
≤ 10	≤ 10	–	CN(C)CCNS(=O)(=O)CCCOc1ccc2c(c1)C(C1(c3ccc(Cl)cc3)CCC1)NCC2 (stereo not shown) [Example 132, 3-({1-[1-(4-Chlorophenyl)cyclobutyl]-1,2,3,4-tetrahydroisoquinolin-7-yl}oxy)-N-[2-(dimethylamino)ethyl]propane-1-sulfonamide dihydrochloride]
≤ 10	≤ 1	–	CC(C)NS(=O)(=O)CCCOc1ccc2c(c1)C(C1(c3ccc(Cl)cc3)CCC1)NCC2 (stereo not shown) [Example 117, 3-({1-[1-(4-Chlorophenyl)cyclobutyl]-1,2,3,4-tetrahydroisoquinolin-7-yl}oxy)-N-(propan-2-yl)propane-1-sulfonamide hydrochloride]
